Assay [1] relates to E. coli. The experiment in a line: Antibacterial activities of the peptide analogs (relative OD600). It is filed as cell-based. An excerpt: FIG. 10 is a plot showing the antibacterial activities of the peptide analogs on E. coli. C-amidation: C-terminus amidated Peptide A; B1: RIILRAQGALKI; B2: IRIILRAQGALK; B3: RIILR. Results expressed as relative OD600 compared to culture medium group (%) (*: p<0.05, **: p<0.01, n=3)

For another assay, the system named is E. tarda. The experiment in a line: Host resistance assay, Experiment Two: pre-injection 2 h before bacteria. The note with it: injected 2 h prior to E. tarda. The class given is in vivo, Medaka. On the procedure:
FIG. 11A is a plot showing the effect of Peptide A on viability of cultured mammalian cells, incubated for 48 h in the presence of Peptide A at different concentrations (μg/ml), as determined by MTT assay. Cell viability represented as peptide treated cell numbers over medium-only control. Statistically significant difference as compared to controls (*: p<0.05, **: p<0.01, n=4). FIG. 11B is a plot showing the ability of Peptide A to protect medaka from lethal challenge of E. tarda ([…]). Medaka was injected with 1 μl of Peptide A (0.68 mM), with 1 μl of E. tarda (10^7 CFU/ml) and Peptide A (0.68 mM) mixture, or with E. tarda alone (1 μl of E. tarda:10^7 CFU/ml). […] 20 fish per group. Log-rank (Mantel-Cox) test was applied for the comparison of survival curves (**: p<0.01).
The efficacy of the synthesized AMP to protect medaka against infection was characterized using host resistance assays with intraperitoneal (i.p.) injection of bacteria using a micro-injection machine (PV820 Pneumatic PicoPump). In Experiment One, 80 medaka fish were used and divided into four groups (20 fish in each group, male, 6 months): (1) Group 1 was injected with only 1 μl of PBS in each fish; (2) Group 2 was injected with only 1 μl of novel AMP (0.68 mM) in each fish; (3) Group 3 was injected with 1 μl of bacteria (at a titer of 5×10^7 CFU/ml); and (4) bacteria and novel AMP were mixed for 5 min and then 1 μl of the mixture was injected into Group 4 (Bacteria: 5×10^7 CFU/ml, AMP: 0.68 mM). In Experiment Two, 60 fish were used and divided into three groups: each fish was injected with 1 μl of PBS, ampicillin (5.7 mM) or Peptide A (1.36 mM). The fish were anesthetized in MS222 for 30 s before microinjection. After two hours, 1 μl of bacteria (5×10^7 CFU/ml) was injected into the fish. All of the fishes were kept under a static condition of 26° C.±1° C., with 14:10 hrs of a light-dark cycle. The water was replaced every two days. The fish were fed three times each day. The number of dead fish was counted on a daily basis until two weeks after the injections.

The test system of a further assay is E. coli PQ37. Nature of the assay: SOS induction (chromotest). The class given is cell-based. On the procedure:
(§1) Results are expressed as 2^(−Delta Delta C (T)). […] Results are expressed as 2^(−Delta Delta C (T)).
E. coli PQ37 (Genotype: Sfi A and Lac Z fusion, lac Z) was cultured in lysogeny broth (LB) that contained 57.2 μM of ampicillin overnight (37° C.) and subcultured through 20 dilutions on another day so that OD600 equals to 0.2-0.4. PQ37 was incubated in 0.3 ml AMP (3.4 μM) or Piscidin ([…], 3.77 μM) for 2 hours and then re-suspended in the same volume of Z-buffer (Na2HPO4.7H2O 16.1 g/l, NaH2PO4.2H2O 6.24 g/L, KCl 0.75 g/L, MgSO4.7H2O 0.246 g/L and b-mercaptoethanol 0.3% (v/v)) for carrying out a β-galactosidase assay (β-ga) and alkaline phosphatase assay (ap), respectively. The bacteria were lysed with 0.1 ml of 0.1% SDS and 0.15 ml of chloroform. For the β-ga assay, the reaction was started by adding 0.6 ml of ortho-Nitrophenyl-β-galactoside (ONPG; Catalog number 34055, ThermoFisher Scientific) for color development and then stopped with the addition of 2 ml of 1 M NaCO3 solution. For ap acsay, the reaction was started by adding 0.6 ml of para-Nitrophenylphosphate (PNPP; Catalog number 34045, ThermoFisher Scientific) for color development which was then terminated by the addition of 1 ml of 2 M HCl solution and 1 ml of 2 M Tri-HCl to restore the colour. The absorbance was read at 420 nm against a blank without bacteria. The induction factor (IF) was calculated as the ratio R(x)/R(0) (R(x)=β-g/ap determined for the tested peptide; R(0)=β-g/ap determined for the LB). Furacin (antibiotic) and Piscidin were chosen as the controls. Each experiment was performed in triplicate.

The test system of assay [2] is E. coli. The class given is cell-based.
The subject of the next assay is CpxR. Nature of the assay: Quantitative real-time PCR. The class given is cell-based. As to conditions: E. tarda, Piscidin 7.5 μM, 1 hour.
Source text: as §1
Each group has 6 biological replicates. […] Gene-specific primers were designed with Primer-BLAST (NCBI).
(In general: Quantitative PCR measures a nucleic acid by following its amplification.)

Peptide text beside a SMILES is read from it.

On to “IRIILRAQGALK [Peptide B2, Peptide A with the C-terminal amino acid removed]”, for which the “antibacterial activity compared with Peptide A” value with E. coli [1] was “reduce the antibacterial effect”.

In the case of `CC1(C)S[C@@H]2[C@H](NC(=O)[C@H](N)c3ccccc3)C(=O)N2[C@H]1C(=O)O` [Ampicillin, reference compound], the initial survival rate entry in the assay on E. tarda (one day post injection, Peptide A 1.37 mM, Ampicillin 5.7 mM, 1 μl) is on record as “about 45%”. Besides, the “effect on E. tarda infection / surviving fish” value in the assay with E. tarda (two weeks after infection) is recorded as “ineffective”.

As for RIILR [Peptide B3], in the assay with E. coli [1], the “antibacterial activity compared with Peptide A” value was “much weaker antibacterial activity”.

In the case of `NC(=O)N/N=C/c1ccc([N+](=O)[O-])o1` [Furacin], the “SOS response (expression of LacZ), positive control” value in the assay with E. coli PQ37 (E. coli, different doses of Furacin) is “dose-dependent expression of LacZ”.

On to `CC(C)C[C@H](NC(=O)[C@H](Cc1ccc(O)cc1)NC(=O)[C@H](Cc1c[nH]cn1)NC(=O)[C@H](CCCCN)NC(=O)[C@H](CC(C)C)NC(=O)[C@H](C)NC(=O)[C@H](CC(C)C)NC(=O)[C@H](CCCCN)NC(=O)CNC(=O)[C@@H](NC(=O)[C@@H](NC(=O)[C@H](CCCCN)NC(=O)[C@@H](NC(=O)[C@H](CCC(=O)O)NC(=O)[C@H](C)NC(=O)[C@H](CCCCN)NC(=O)[C@H](CCCCN)NC(=O)[C@H](CC(C)C)NC(=O)[C@H](CC(C)C)NC(=O)[C@@H](NC(=O)[C@H](CCCNC(=N)N)NC(=O)[C@H](Cc1c[nH]c2ccccc12)NC(=O)CN)[C@@H](C)O)C(C)C)[C@@H](C)O)C(C)C)C(=O)O` [Piscidin] (H-GWRTLLKKAEVKTVGKLALKHYL-OH; N-terminus and C-terminus assumed), for which, in the assay on E. coli [2], the “MIC for E. coli” value was 3.77 µM. In addition, the “SOS response (induction factor)” value in the assay with E. coli PQ37 (E. coli PQ37, 120 min, Peptide A 3.4 μM, Piscidin 3.77 μM) was “no effect on SOS response”. In the assay on CpxR, the CpxR gene expression entry is listed as “no effect”.

On to “RIILRAQGALKI [Peptide B1, Peptide A with the N-terminal amino acid removed]”, for which, in the assay on E. coli [1], the “antibacterial activity compared with Peptide A” value is “reduce the antibacterial effect”.

Source of the values: US11065296B2, “Antimicrobial peptide, its analog and use” (City University of Hong Kong, priority 2018, dated 2021).
